According to patent US9617283B2, “Bicyclic heterocycle compounds and their uses in therapy” (ASTEX THERAPEUTICS LIMITED, priority 2012, dated 2017):
Structures can show the parent of a compound that is named as a salt.

What follows are compounds tested on EVSA-T (human breast carcinoma) (assay: Anti-proliferative activity, Alamar Blue assay, EVSA-T). Details: Homo sapiens, EVSA-T, 72 h, EVSA-T cell line, 72 hours, Alamar Blue; read-out: EVSA-T prolif.
Assay type: cell-based
Procedure: Anti-Proliferative Activity
The method is based on the ability of viable cells to reduce resazurin to its fluorescent product resorufin. For each proliferation assay cells are plated onto 96 well plates and allowed to recover for 16 hours prior to the addition of inhibitor compounds (in 0.1% DMSO v/v) for a further 72 hours. […] The anti-proliferative activities of compounds of the invention can be determined by measuring the ability of the compounds to inhibit growth in 3 cancer cell lines: • EVSA-T (human breast carcinoma) DSMZ cat. no.

| Structure (SMILES) | EC50 [nM] |
| --- | --- |
| C[C@@H]1CN(CC(=O)N2CC(C)(C)c3ncc(Cc4ccc(F)cc4)cc32)[C@@H](CN2CC(C)(C)OCC2=O)CN1 [Example 97, 4-{[(2R,5R)-1-(2-{6-[(4-Fluorophenyl)methyl]-3,3-dimethyl-1H,2H,3H-pyrrolo[3,2-b]pyridin-1-yl}-2-oxoethyl)-5-methylpiperazin-2-yl]methyl}-6,6-dimethylmopholin-3-one dihydrochloride] | 9 |
| COC[C@@H]1CN(C[C@H]2CN[C@H](C)CN2CC(=O)N2CC(C)(C)c3nnc(Cc4ccc(F)cc4F)cc32)C(=O)CO1 [Example 101, (6S)-4-{[(2R,5R)-1-(2-{3-[(2,4-Difluorophenyl)methyl]-7,7-dimethyl-5H,6H,7H-pyrrolo[3,2-c]pyridazin-5-yl}-2-oxoethyl)-5-methylpiperazin-2-yl]methyl}-6-(methoxymethyl)morpholin-3-one dihydrochloride] | 25 |
| C[C@@H]1CN(CC(=O)N2CC(C)(C)c3nnc(Cc4ccc(F)cc4F)cc32)[C@@H](CN2Cc3c(C#N)cccc3C2=O)CN1 [Example 119, 2-{[(2R,5R)-1-(2-{3-[(2,4-Difluorophenyl)methyl]-7,7-dimethyl-5H,6H,7H-pyrrolo[3,2-c]pyridazin-5-yl}-2-oxoethyl)-5-methylpiperazin-2-yl]methyl}-1-oxo-2,3-dihydro-1H-isoindole-4-carbonitrile dihydrochloride] | 7.5 |

Same assay, conditions: Homo sapiens, EVSA-T, read-out: EC50 in EVSA-T cell line assays

| Structure (SMILES) | EC50 [nM] |
| --- | --- |
| C[C@@H]1CN(CC(=O)N2CC(C)(C)c3nnc(Cc4ccc(F)cc4F)cc32)[C@@H](CN2Cc3ccccc3C2=O)CN1 [Example 79, 2-{[(2R,5R)-1-(2-{3-[(2,4-Difluorophenyl)methyl]-7,7-dimethyl-5H,6H,7H-pyrrolo[3,2-c]pyridazin-5-yl}-2-oxoethyl)-5-methylpiperazin-2-yl]methyl}-2,3-dihydro-1H-isoindol-1-one dihydrochloride] | < 1000 |

Same assay, conditions: Homo sapiens, EVSA-T; read-out: EC50 in EVSA-T cell line assays

| Structure (SMILES) | EC50 [nM] |
| --- | --- |
| CCCC(F)(F)c1cc2c(nn1)C(C)(C)CN2C(=O)CN1C[C@@H](C)NC[C@@H]1CN1C[C@H](C)OCC1=O [Example 57, (6S)-4-{[(2R,5R)-1-{2-[3-(1,1-Difluorobutyl)-7,7-dimethyl-5H,6H,7H-pyrrolo[3,2-c]pyridazin-5-yl]-2-oxoethyl}-5-methylpiperazin-2-yl]methyl}-6-methylmorpholin-3-one] | < 1000 |
| CCCC(F)(F)c1cc2c(nn1)C(C)(C)CN2C(=O)CN1C[C@@H](C)NC[C@@H]1CN1C(=O)CO[C@@H](C)[C@H]1C [Example 58, (5R,6S)-4-{[(2R,5R)-1-{2-[3-(1,1-Difluorobutyl)-7,7-dimethyl-5H,6H,7H-pyrrolo[3,2-]pyridazin-5-yl]-2-oxoethyl}-5-methylpiperazin-2-yl]methyl}-5,6-dimethylmorpholin-3-one] | < 1000 |
| C[C@@H]1CN(CC(=O)N2CC(C)(C)c3ncc(Cc4ccc(F)cc4F)cc32)[C@@H](CN2Cc3ncccc3C2=O)CN1 [Example 62, 6-{[(2R,5R)-1-(2-{6-[(2,4-Difluorophenyl)methyl]-3,3-dimethyl-1H,2H,3H-pyrrolo[3,2-b]pyridin-1-yl}-2-oxoethyl)-5-methylpiperazin-2-yl]methyl}-5H,6H,7H-pyrrolo[3,4-b]pyridin-5-one] | < 1000 |
| C[C@@H]1CN(CC(=O)N2CC(C)(C)c3cnc(Cc4ccc(F)cc4F)cc32)[C@@H](CN2Cc3ncccc3C2=O)CN1 [Example 63, 6-{[(2R,5R)-1-(2-{6-[(2,4-Difluorophenyl)methyl]-3,3-dimethyl-1H,2H,3H-pyrrolo[3,2-c]pyridin-1-yl}-2-oxoethyl)-5-methylpiperazin-2-yl]methyl}-5H,6H,7H-pyrrolo[3,4-b]pyridin-5-one] | < 1000 |
| C[C@@H]1CN(CC(=O)N2CC(C)(C)c3nnc(Cc4ccc(F)cc4F)cc32)[C@@H](CN2Cc3ncccc3C2=O)CN1 [Example 64, 6-{[(2R,5R)-1-(2-{3-[(2,4-Difluorophenyl)methyl]-7,7-dimethyl-5H,6H,7H-pyrrolo[3,2-c]pyridazin-5-yl}-2-oxoethyl)-5-methylpiperazin-2-yl]methyl}-5H,6H,7H-pyrrolo[3,4-b]pyridin-5-one] | < 1000 |
| C[C@@H]1CN(CC(=O)N2CC(C)(C)c3nnc(Cc4ccc(F)cc4)cc32)[C@@H](CN2Cc3ncccc3C2=O)CN1 [Example 65, 6-{[(2R,5R)-1-(2-{3-[(4-Fluorophenyl)methyl]-7,7-dimethyl-5H,6H,7H-pyrrolo[3,2-c]pyridazin-5-yl}-2-oxoethyl)-5-methylpiperazin-2-yl]methyl}-5H,6H,7H-pyrrolo[3,4-b]pyridin-5-one] | < 1000 |
| CCCC(F)(F)c1cnc2c(c1)N(C(=O)CN1C[C@@H](C)NC[C@@H]1CN1Cc3ncccc3C1=O)CC2(C)C [Example 66, 6-{[(2R,5R)-1-{2-[6-(1,1-Difluorobutyl)-3,3-dimethyl-1H,2H,3H-pyrrolo[3,2-b]pyridin-1-yl]-2-oxoethyl}-5-methylpiperazin-2-yl]methyl}-5H,6H,7H-pyrrolo[3,4-b]pyridin-5-one] | < 1000 |
| CCCC(F)(F)c1cc2c(nn1)C(C)(C)CN2C(=O)CN1C[C@@H](C)NC[C@@H]1CN1Cc2ncccc2C1=O [Example 67, 6-{[(2R,5R)-1-{2-[3-(1,1-Difluorobutyl)-7,7-dimethyl-5H,6H,7H-pyrrolo[3,2-c]pyridazin-5-yl]-2-oxoethyl}-5-methylpiperazin-2-yl]methyl}-5H,6H,7H-pyrrolo[3,4-b]pyridin-5-one] | < 1000 |
| C[C@@H]1CN(CC(=O)N2CC(C)(C)c3ncc(Cc4ccc(F)cc4)cc32)[C@@H](CN2CC(C)(C)OCC2=O)CN1 [Example 97, 4-{[(2R,5R)-1-(2-{6-[(4-Fluorophenyl)methyl]-3,3-dimethyl-1H,2H,3H-pyrrolo[3,2-b]pyridin-1-yl}-2-oxoethyl)-5-methylpiperazin-2-yl]methyl}-6,6-dimethylmopholin-3-one dihydrochloride] | < 1000 |
| COC[C@@H]1CN(C[C@H]2CN[C@H](C)CN2CC(=O)N2CC(C)(C)c3nnc(Cc4ccc(F)cc4F)cc32)C(=O)CO1 [Example 101, (6S)-4-{[(2R,5R)-1-(2-{3-[(2,4-Difluorophenyl)methyl]-7,7-dimethyl-5H,6H,7H-pyrrolo[3,2-c]pyridazin-5-yl}-2-oxoethyl)-5-methylpiperazin-2-yl]methyl}-6-(methoxymethyl)morpholin-3-one dihydrochloride] | < 1000 |
| C[C@@H]1CN(CC(=O)N2CC(C)(C)c3nnc(Cc4ccc(F)cc4F)cc32)[C@@H](CN2Cc3c(C#N)cccc3C2=O)CN1 [Example 119, 2-{[(2R,5R)-1-(2-{3-[(2,4-Difluorophenyl)methyl]-7,7-dimethyl-5H,6H,7H-pyrrolo[3,2-c]pyridazin-5-yl}-2-oxoethyl)-5-methylpiperazin-2-yl]methyl}-1-oxo-2,3-dihydro-1H-isoindole-4-carbonitrile dihydrochloride] | < 1000 |

Same assay, conditions: Homo sapiens; EVSA-T cell line, 72 hours, Alamar Blue; read-out: EVSA-T prolif

| Structure (SMILES) | EC50 [nM] |
| --- | --- |
| C[C@@H]1CN(CC(=O)N2CC(C)(C)c3nnc(Cc4ccc(F)cc4)cc32)[C@@H](CN2Cc3ccccc3C2=O)CN1 [Example 61, 2-{[(2R,5R)-1-(2-{3-[(4-Fluorophenyl)methyl]-7,7-dimethyl-5H,6H,7H-pyrrolo[3,2-c]pyridazin-5-yl}-2-oxoethyl)-5-methylpiperazin-2-yl]methyl}-2,3-dihydro-1H-isoindol-1-one dihydrochloride] | 1.5 |
| C[C@@H]1CN(CC(=O)N2CC(C)(C)c3ncc(Cc4ccc(F)cc4F)cc32)[C@@H](CN2Cc3ccccc3C2=O)CN1 [Example 76, 2-{[(2R,5R)-1-(2-{6-[(2,4-Difluorophenyl)methyl]-3,3-dimethyl-1H,2H,3H-pyrrolo[3,2-b]pyridin-1-yl}-2-oxoethyl)-5-methylpiperazin-2-yl]methyl}-2,3-dihydro-1H-isoindol-1-one dihydrochloride] | 2.5 |
| C[C@@H]1CN(CC(=O)N2CC(C)(C)c3nnc(Cc4ccc(F)cc4F)cc32)[C@@H](CN2Cc3ccccc3C2=O)CN1 [Example 79, 2-{[(2R,5R)-1-(2-{3-[(2,4-Difluorophenyl)methyl]-7,7-dimethyl-5H,6H,7H-pyrrolo[3,2-c]pyridazin-5-yl}-2-oxoethyl)-5-methylpiperazin-2-yl]methyl}-2,3-dihydro-1H-isoindol-1-one dihydrochloride] | 0.2 |
| C[C@@H]1CN(CC(=O)N2CC(C)(C)c3nnc(Cc4ccc(F)cc4F)cc32)[C@@H](CN2Cc3ccc(F)cc3C2=O)CN1 [Example 93, 2-{[(2R,5R)-1-(2-{3-[(2,4-Difluorophenyl)methyl]-7,7-dimethyl-5H,6H,7H-pyrrolo[3,2-c]pyridazin-5-yl}-2-oxoethyl)-5-methylpiperazin-2-yl]methyl}-6-fluoro-2,3-dihydro-1H-isoindol-1-one dihydrochloride] | 0.5 |
| COc1ccc2c(c1)CN(C[C@H]1CN[C@H](C)CN1CC(=O)N1CC(C)(C)c3ncc(Cc4ccc(F)cc4)cc31)C2=O [Example 94, 2-{[(2R,5R)-1-(2-{6-[(4-Fluorophenyl)methyl]-3,3-dimethyl-1H,2H,3H-pyrrolo[3,2-b]pyridin-1-yl}-2-oxoethyl)-5-methylpiperazin-2-yl]methyl}-5-methoxy-2,3-dihydro-1H-isoindol-1-one dihydrochloride] | 4.8 |
| C[C@@H]1CN(CC(=O)N2CC(C)(C)c3ncc(Cc4ccc(F)cc4)cc32)[C@@H](CN2Cc3cccnc3C2=O)CN1 [Example 95, 6-{[(2R,5R)-1-(2-{6-[(4-Fluorophenyl)methyl]-3,3-dimethyl-1H,2H,3H-pyrrolo[3,2-b]pyridin-1-yl}-2-oxoethyl)-5-methylpiperazin-2-yl]methyl}-5H,6H,7H-pyrrolo[3,4-b]pyridin-7-one dihydrochloride] | 0.71 |
| C[C@@H]1CN(CC(=O)N2CC(C)(C)c3nnc(Cc4ccc(F)cc4F)cc32)[C@@H](CN2Cc3cc(F)ccc3C2=O)CN1 [Example 103, 2-{[(2R,5R)-1-(2-{3-[(2,4-Difluorophenyl)methyl]-7,7-dimethyl-5H,6H,7H-pyrrolo[3,2-c]pyridazin-5-yl}-2-oxoethyl)-5-methylpiperazin-2-yl]methyl}-5-fluoro-2,3-dihydro-1H-isoindol-1-one dihydrochloride] | 0.18 |
| C[C@@H]1CN(CC(=O)N2CC(C)(C)c3nnc(Cc4ccc(F)cc4F)cc32)[C@@H](CN2Cc3c(F)cccc3C2=O)CN1 [Example 104, 2-{[(2R,5R)-1-(2-{3-[(2,4-Difluorophenyl)methyl]-7,7-dimethyl-5H,6H,7H-pyrrolo[3,2-c]pyridazin-5-yl}-2-oxoethyl)-5-methylpiperazin-2-yl]methyl}-4-fluoro-2,3-dihydro-1H-isoindol-1-one dihydrochloride] | 0.12 |
| C[C@@H]1CN(CC(=O)N2CC(C)(C)c3nnc(Cc4ccc(F)cc4F)cc32)[C@@H](CN2Cc3cc(C#N)ccc3C2=O)CN1 [Example 109, 2-{[(2R,5R)-1-(2-{3-[(2,4-Difluorophenyl)methyl]-7,7-dimethyl-5H,6H,7H-pyrrolo[3,2-c]pyridazin-5-yl}-2-oxoethyl)-5-methylpiperazin-2-yl]methyl}-1-oxo-2,3-dihydro-1H-isoindole-5-carbonitrile dihydrochloride] | 0.64 |
| C[C@@H]1CN(CC(=O)N2CC(C)(C)c3nnc(Cc4ccc(F)cc4F)cc32)[C@@H](CN2Cc3ccc(C#N)cc3C2=O)CN1 [Example 114, 2-{[(2R,5R)-1-(2-{3-[(2,4-Difluorophenyl)methyl]-7,7-dimethyl-5H,6H,7H-pyrrolo[3,2-c]pyridazin-5-yl}-2-oxoethyl)-5-methylpiperazin-2-yl]methyl}-3-oxo-2,3-dihydro-1H-isoindole-5-carbonitrile dihydrochloride] | 1.4 |
